Data as given in ChEMBL document CHEMBL3870333, “Synthesis of Keap1-phosphorylated p62 and Keap1-Nrf2 protein-protein interaction inhibitors and their inhibitory activity” (Bioorg Med Chem Lett, 2016).

What was measured:
[1] = target: Sequestosome-1/Kelch-like ECH-associated protein 1 (Homo sapiens, UniProt Q14145); test: Inhibition of recombinant GST-His-tagged Keap1-DC domain (321 to 609 residues) (unknown origin) expressed in Escherichia coli/FAM-labeled phosphorylated p62 (unknown origin) interaction measured after 30 mins by fluorescence polarization assay
Sequestosome-1/Kelch-like ECH-associated protein 1, sequence (Q14145 whole entry, the tested form may be a part): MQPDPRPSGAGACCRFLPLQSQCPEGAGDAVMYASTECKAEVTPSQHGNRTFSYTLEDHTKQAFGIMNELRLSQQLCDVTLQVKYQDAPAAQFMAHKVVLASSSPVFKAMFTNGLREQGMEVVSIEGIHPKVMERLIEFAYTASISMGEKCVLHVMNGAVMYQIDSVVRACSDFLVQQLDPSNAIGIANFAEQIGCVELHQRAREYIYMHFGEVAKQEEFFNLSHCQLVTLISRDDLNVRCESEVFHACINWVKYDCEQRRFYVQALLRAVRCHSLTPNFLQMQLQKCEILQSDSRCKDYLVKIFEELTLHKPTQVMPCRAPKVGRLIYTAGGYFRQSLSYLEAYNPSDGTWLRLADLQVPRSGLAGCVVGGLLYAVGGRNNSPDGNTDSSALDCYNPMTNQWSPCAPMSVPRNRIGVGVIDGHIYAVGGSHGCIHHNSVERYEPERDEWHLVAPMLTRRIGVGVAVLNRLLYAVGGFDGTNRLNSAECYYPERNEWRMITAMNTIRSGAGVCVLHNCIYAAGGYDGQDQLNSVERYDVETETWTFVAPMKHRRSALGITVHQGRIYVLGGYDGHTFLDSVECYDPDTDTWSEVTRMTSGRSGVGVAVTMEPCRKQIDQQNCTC
Sequestosome-1/Kelch-like ECH-associated protein 1, sequence (Q13501 whole entry, further chain, the tested form may be a part): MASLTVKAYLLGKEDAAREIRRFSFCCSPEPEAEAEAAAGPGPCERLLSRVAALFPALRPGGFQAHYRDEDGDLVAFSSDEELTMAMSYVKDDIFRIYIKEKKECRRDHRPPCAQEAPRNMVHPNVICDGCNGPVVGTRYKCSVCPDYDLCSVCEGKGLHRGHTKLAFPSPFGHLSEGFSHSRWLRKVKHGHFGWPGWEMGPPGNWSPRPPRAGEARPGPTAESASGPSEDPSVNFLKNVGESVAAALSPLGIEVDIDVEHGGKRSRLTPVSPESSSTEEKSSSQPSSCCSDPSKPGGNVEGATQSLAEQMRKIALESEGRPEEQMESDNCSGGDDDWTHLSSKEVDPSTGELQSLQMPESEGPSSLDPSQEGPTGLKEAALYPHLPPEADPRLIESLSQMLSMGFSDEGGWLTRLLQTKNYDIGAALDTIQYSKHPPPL

[2] = target: Keap1/Nrf2 (Homo sapiens, UniProt Q14145); test: Inhibition of recombinant GST-His-tagged Keap1-DC domain (321 to 609 residues) (unknown origin) expressed in Escherichia coli/FAM-labeled Nrf2 (unknown origin) interaction measured after 30 mins by fluorescence polarization assay
Keap1/Nrf2, sequence (Q16236 whole entry, the tested form may be a part): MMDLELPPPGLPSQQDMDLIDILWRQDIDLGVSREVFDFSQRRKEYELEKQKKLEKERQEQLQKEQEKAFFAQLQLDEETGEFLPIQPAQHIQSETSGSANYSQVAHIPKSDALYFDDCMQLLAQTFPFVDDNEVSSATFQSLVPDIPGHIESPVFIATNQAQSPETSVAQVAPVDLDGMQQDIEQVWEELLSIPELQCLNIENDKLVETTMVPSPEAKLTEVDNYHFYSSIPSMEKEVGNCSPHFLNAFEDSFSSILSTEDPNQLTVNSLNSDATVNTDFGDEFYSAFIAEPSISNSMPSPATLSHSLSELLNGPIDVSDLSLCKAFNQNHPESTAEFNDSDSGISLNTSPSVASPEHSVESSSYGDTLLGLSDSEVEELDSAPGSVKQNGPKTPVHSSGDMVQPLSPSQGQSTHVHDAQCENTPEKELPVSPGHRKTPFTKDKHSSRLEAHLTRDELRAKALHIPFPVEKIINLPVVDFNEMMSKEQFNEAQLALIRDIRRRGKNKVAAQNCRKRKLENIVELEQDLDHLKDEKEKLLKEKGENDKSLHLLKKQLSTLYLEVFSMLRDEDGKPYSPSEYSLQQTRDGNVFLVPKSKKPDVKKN
Keap1/Nrf2, sequence (Q14145 whole entry, the tested form may be a part): as the sequence (Q14145 whole entry, the tested form may be a part) above

[3] = species: Homo sapiens; test: Selectivity index, ratio of IC50 for recombinant GST-His-tagged Keap1-DC domain (321 to 609 residues) (unknown origin) expressed in Escherichia coli/FAM-labeled Nrf2 (unknown origin) interaction to IC50 for recombinant GST-His-tagged Keap1-DC domain (321 to 609 residues) (unknown origin) expressed in Escherichia coli/FAM-labeled phosphorylated p62 (unknown origin) interaction

CCOc1ccc(S(=O)(=O)Nc2cc(Sc3nc[nH]n3)c(NS(=O)(=O)c3ccc(OCC)cc3)c3ccccc23)cc1
IC50 [1]: 1000 nM
IC50 [2]: 1300 nM
Ratio IC50 [3]: 1.3

CCOc1ccc(S(=O)(=O)Nc2cc(CCC(=O)O)c(NS(=O)(=O)c3ccc(OCC)cc3)c3ccccc23)cc1
IC50 [1]: 190 nM
IC50 [2]: 230 nM
Ratio IC50 [3]: 1.2

CCOc1ccc(S(=O)(=O)Nc2cc(CC(=O)O)c(NS(=O)(=O)c3ccc(OCC)cc3)c3ccccc23)cc1
IC50 [1]: 230 nM
IC50 [2]: 320 nM
Ratio IC50 [3]: 1.4

COc1ccc(S(=O)(=O)Nc2cc(CC(C)=O)c(NS(=O)(=O)c3ccc(OC)cc3)c3ccccc23)cc1
IC50 [1]: 2400 nM
IC50 [2]: 3200 nM
Ratio IC50 [3]: 1.3

CCOc1ccc(S(=O)(=O)Nc2ccc(NS(=O)(=O)c3ccc(OCC)cc3)c3ccccc23)cc1
IC50 [1]: 1400 nM
IC50 [2]: 2800 nM
Ratio IC50 [3]: 2

CCOc1ccc(S(=O)(=O)Nc2cc(SCC(=O)OC)c(NS(=O)(=O)c3ccc(OCC)cc3)c3ccccc23)cc1
IC50 [1]: 370 nM
IC50 [2]: 720 nM
Ratio IC50 [3]: 1.9

CCOc1ccc(S(=O)(=O)Nc2cc(CC(C)=O)c(NS(=O)(=O)c3ccc(OCC)cc3)c3ccccc23)cc1
IC50 [1]: 1500 nM
IC50 [2]: 6200 nM
Ratio IC50 [3]: 4.1

CCOc1ccc(S(=O)(=O)Nc2cc(CCCC(=O)O)c(NS(=O)(=O)c3ccc(OCC)cc3)c3ccccc23)cc1
IC50 [2]: 150 nM
Ratio IC50 [3]: 1

CCOc1ccc(S(=O)(=O)Nc2cc(SCC(=O)O)c(NS(=O)(=O)c3ccc(OCC)cc3)c3ccccc23)cc1
IC50 [1]: 180 nM
IC50 [2]: 200 nM
Ratio IC50 [3]: 1.1
